Measured values reported in patent publication US20050101633A1, “Remedial agent for myelopathic disease” (priority 2001, published 2005).

Legend:
[1] = tested on: spinal cord injury model in rats; details: reported in Brain Research, 799, 264-269 (1998); cited from earlier work
[2] = tested on: rat spinal cord injury model; experiment: Improvement of dyskinesia, open field walking scale after spinal cord injury; type: in vivo; details: 50 mg/kg injected 15 min before SCI; compression injury with 20-g weight; up to 28 days; FIG. 4
Description: (§1) SCI was induced 15 min after injection of test compound (50 mg/kg). Dyskinesia was assessed according to an open field walking scale (Behrmann et al., Exp. Neurol. 126, 61-75 (1994)) and an inclined-plane test (Rivlin et al., J. Neurosurg. 47, 577-581 (1977)) using rats subjected to compression injury with a 20-g weight. In the open field walking scale, animals were scored from 0 (no spontaneous movement) to 5 (normal gait) based on 5 min of observation. With the scale, the animal's capability for gross hindlimb movement was evaluated before SCI, every 2 days afterward for 2 weeks beginning on the first day, and later at 21 and 28 days after injury. In the inclined-plane test, a cork mat was fixed to the surface of a movable inclined plane. We recorded the maximal angle of inclined-plane at which the rat could maintain position for […]. This was evaluated before and at 1, 7, 14, 21 and 28 days after injury.

[3] = tested on: rat spinal cord injury model; experiment: Improvement of dyskinesia, inclined-plane test after spinal cord injury; type: in vivo; details: 50 mg/kg injected 15 min before SCI; compression injury with 20-g weight; up to 28 days; FIG. 5
Description: as §1

CINC-1 protein = experiment: Suppression of CINC-1 expression on rat spinal cord injury model; type: in vivo; details: Wistar rats; injected via femoral vein 15 min before spinal cord injury; T13 segment; FIG. 1
Description: Under anesthesia using pentobarbital (40 mg/kg of body weight), spinal cord injury model was made using Wistar rats weighing 250-300 g according to the operative procedure of Tonai et al. [J. Neurochem. 72, 302-309 (1999)]. At various time intervals after injury, the rats were frozen, and then T13 spinal cord segment was removed for analysis of CINC-1 protein.
The test compound was dissolved in physiologic saline containing 12 mM Na2CO3 and injected via the femoral vein 15 min before spinal cord injury. Saline vehicle alone was administered by the same route in control animals.

myeloperoxidase activity = experiment: Assay of myeloperoxidase (MPO) activity in T13 spinal cord segment after spinal cord injury; type: in vivo, rat; details: administered 15 minutes before spinal cord injury, FIG. 2
Description: For assessment of accumulation and infiltration of leukocytes, we measured myeloperoxidase activity according to a modification of the method of Xu et al. (J. neurochem. 55, 907-912 (1990)). The test compound was administrated 15 minutes before spinal cord injury, and then the T13 segments 2, 4, 8, 12 and 24 h after injury were sonicated in 1 mL of 50 mM potassium phosphate buffer (pH 6.0) containing 0.5% […]. The homogenates were centrifuged at 10,000×g for 20 min, and 0.1 mL of the supernatant was added to 0.6 mL of 50 mM potassium phosphate buffer (pH 6.0) containing 0.53 mM o-dianisidine dihydrochrolide and 0.15 mM H2O2. After 5 min, the change in absorbance at 460 nm was monitored with a spectrophotometer (model DU 640, Beckmann, Germany).

blood-CNS barrier = experiment: Blood-CNS barrier disruption (Evans blue dye) after spinal cord injury; type: in vivo, rat; details: 50 mg/kg injected 15 min before SCI; Evans blue at 6 h after SCI; FIG. 3
Description: Disruption of the blood-CNS barrier was assessed according to the method of Uyama et al. [J. Cereb. Blood Flow Metab. 8, 282-284 (1988)] with certain modifications. SCI was induced 15 min after injection of test compound (50 mg/kg). At 6 h after SCI, 4 mL/kg of 2.5% Evans blue dye solution was administered via the femoral vein. One hour later rats were anesthetized by pentobarbital (40 mg/kg) and killed. The T13 spinal cord segment was removed and homogenized in 1 mL of 50% trichloroacetic acid (w/v). After centrifugation the extracted dye was diluted fourfold with ethanol, and its fluorescence was quantified using a spectrophotometer at an excitation wavelength of 620 nm and an emission wavelength of 680 nm.

Row | Compound | efficacy in spinal cord injury model in rats [1] | dyskinesia after spinal cord injury, open field walking scale [2] | dyskinesia after spinal cord injury, inclined-plane test [3] | CINC-1 protein expression after spinal cord injury (CINC-1 protein) | myeloperoxidase activity (myeloperoxidase activity; 4 hours after injury) | myeloperoxidase activity (myeloperoxidase activity; 12 hours after injury) | myeloperoxidase activity (myeloperoxidase activity; 24 hours after injury) | Blood-CNS barrier disruption (blood-CNS barrier)
1 | CO[C@H]1C(=O)N2C(C(=O)N3CCC[C@H]3C(=O)O)=C(COC(C)=O)CS(=O)(=O)[C@H]12 [L 658,758] | effective | – | – | – | – | – | – | –
2 | CC(C)(C)C(=O)Oc1ccc(S(=O)(=O)Nc2ccccc2C(=O)NCC(=O)[O-])cc1.O.O.O.O.[Na+] [compound (X), N-[o-(p-pivaloyloxybenzenesulfonylamino)benzoyl]glycine monosodium salt tetrahydrate] | – | suppressed dyskinesia after spinal cord injury significantly | suppressed dyskinesia after spinal cord injury significantly | suppressed in dose-dependently | 46 % of control | 61 % of control | 64 % of control | suppressed Blood-CNS barrier disruption significantly
3 | Eglin C | effective | – | – | – | – | – | – | –
